According to the METLIN SMRT retention time set (Domingo-Almenara et al. 2019):

Assay: gradient 5% acetonitrile 3 min, to 50% in 2 min, to 85% in 15 min, held 3 min, 100 µL/min
Conditions: column: Zorbax Extend-C18 2.1 x 50 mm; eluents: water / acetonitrile, 0.1% formic acid
Outline: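 The system's dead and dwell volumes were 40 μL and 900 μL, with a Zorbax Extend-C18 column (2.1 × 50 mm, 1.8 μm) run at 100 μL/min in water and acetonitrile containing 0.1% formic acid each. Pure standards were analyzed in mixtures of ~100 molecules by HPLC–quadrupole time-of-flight mass spectrometry in positive and negative ionization mode. Retention time was assigned from computationally picked, manually inspected adduct peaks.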

Compound | RP-LC retention time
CCn1nnc2cc(-c3noc(C4CC(=O)N(c5ccc(C)c(C)c5)C4)n3)ccc21 (centres undefined) | 953 s
Cc1noc(-c2ccccc2OC2CCNC2)n1 (centres undefined) | 590 s
O=c1ccc(-c2ccc(Br)cc2)nn1Cc1nc(-c2cccs2)no1 | 1020 s
COc1ccc(OC)c(NC(=O)N2CCN(Cc3nc4cc(C)ccc4o3)CC2)c1 | 721 s
CC1=C(c2ccc(C)cc2)S(=O)(=O)N=C1N1CCCN(C(=O)Cc2ccsc2)CC1 | 847 s
COc1ccc(NC(=O)C(C)C2CCN(C(=O)Nc3ccc(Cl)cc3)CC2)cc1 (centres undefined) | 854 s
O=C(c1ccc(-c2cccnc2)nc1)N1CCN(c2ccc(F)cc2)CC1 | 671 s
Cc1cc(=O)n(CC(=O)Nc2ccc(N(C)C)cc2)c(-c2ccccc2)n1 | 639 s
COc1ccc(S(=O)(=O)Cc2nc(-c3cccc(Br)c3)no2)cc1 | 1090 s
CNC(=O)c1cc(-c2ccccc2)n(C)c1C | 591 s
Cc1c(Cl)cccc1NC(=O)Cn1c(=O)n(-c2ccccc2)c(=O)c2c1cc(C)n2C | 927 s
Cn1c(=O)n(C)c2cc(S(=O)(=O)c3ccc(F)cc3)c(NC(=O)Cc3cccs3)cc21 | 790 s
Cc1nnc([C@@H]2CC(F)(F)CN2C(=O)c2ccc3ncccc3c2)o1 | 607 s
O=C(Nc1ccccc1F)N1CCCC1c1nc(-c2cccc(Cl)c2)no1 (centres undefined) | 1060 s
O=S(=O)(Nc1ccc(F)cc1F)c1c[nH]c2ncccc12 | 722 s
COc1cc(OC)cc(C(=O)N2CCC(c3cc(N)on3)CC2)c1 | 677 s
CCc1ccc(OCc2nc(C)c(C(=O)Nc3nc(-c4ccc(F)cc4)cs3)s2)cc1 | 1320 s
CC(C)c1cccc(NC(=O)C2CCc3nc(N4CCOCC4)ncc3C2)c1 (centres undefined) | 755 s
COc1ccc(C(=O)NC2CCN(c3ccc(N4CCSCC4)nn3)CC2)c(OC)c1 | 644 s
COC(=O)c1ccc2c(=O)n(-c3ccc(Cl)cc3)c(N3CCN(C)CC3)nc2c1 | 670 s
Cc1nnc2c(=O)n(CC(=O)NC(C)c3ccccc3)c3cccnc3n12 (centres undefined) | 988 s
CCn1c(C2CCN(S(=O)(=O)c3ccc(Cl)cc3)C2)nc2cccnc21 (centres undefined) | 796 s
COc1cc(CNC(=O)C2CCCN(c3nccnc3Oc3ccccc3)C2)cc(OC)c1 (centres undefined) | 929 s

Compound | RP-LC retention time
C=CCn1c(SCC(=O)N2CCC(C(N)=O)CC2)nnc1-c1sc2ncccc2c1N | 616 s
Cc1ccccc1N1C(=O)CN(S(=O)(=O)c2ccccc2)CC1(C)C(=O)NCc1ccc(F)cc1 (centres undefined) | 913 s
COc1ccc(S(=O)(=O)NCC2Cn3cccc3C(=O)N2C)cc1 (centres undefined) | 687 s
O=C(O)c1cn(CCOc2ccccc2)c2ccccc12 | 885 s
CCc1sc(NC(=O)C2CC(=O)N(CCc3c[nH]c4ccc(Cl)cc34)C2)nc1-c1ccccc1 (centres undefined) | 1060 s
O=C(Cn1c(=O)oc2ccccc21)N1CCN(c2ccccn2)CC1 | 598 s
COc1ccc(C)cc1NC(=O)Cn1nc(C(=O)N2CCN(C)CC2)cc1C | 583 s
Cn1nnnc1C1CCCN(S(=O)(=O)Cc2ccccc2)C1 (centres undefined) | 751 s
Cc1noc(C)c1CC(=O)N1CCC2(CC1)C(=O)N(C)c1ccccc12 | 720 s
O=C(Nc1ccccc1)C(=O)c1cn(CC(=O)N2CCOCC2)c2ccccc12 | 860 s
CN(C)[C@@H]1CN(C(=O)C2CCCC2)CC[C@@H]1CO | 569 s
Cc1cc(C(=O)NC2CC2)c2cc(Cl)ccc2n1 | 669 s
O=C(Cc1csc(NC(=O)c2ccco2)n1)NCc1cccs1 | 668 s
O=C(CCC1CCCN(S(=O)(=O)c2ccc(F)cc2)C1)NC1CCS(=O)(=O)C1 (centres undefined) | 731 s
CCn1c(=O)c(N2CCC(NC(=O)Nc3ccccc3Cl)CC2)nc2ccccc21 | 1010 s
COc1ccc(C(C)NC(=O)c2cn3cc(Cl)ccc3n2)cc1 (centres undefined) | 833 s
COc1ccc(C2C(C(=O)NCCN(C)C)c3cc(OC)c(OC)cc3C(=O)N2C)cc1OC (centres undefined) | 589 s
CCOc1cc(Cl)c(S(=O)(=O)Nc2cccnc2)cc1Cl | 717 s
CC(=O)Nc1ccc2c(c1)CN(C(=O)c1ccc(C#N)cc1)C(C(=O)N(C)C)C2 (centres undefined) | 619 s
COc1ccc(OC)c(NC(=O)c2cc(NC(=O)C3CCC3)cc3nc(C)ccc23)c1 | 682 s
CN(C)C[C@@H]1CN(Cc2ccccc2)C[C@H]1NS(=O)(=O)c1cccnc1 | 537 s
COc1ccc(-c2nc(NCCN(C)C3CCCCC3)c3ccccc3n2)cc1 | 592 s
O=C(NC1CCCC1)C1c2cccn2CC(=O)N1Cc1ccc(Cl)cc1 (centres undefined) | 905 s

Compound | RP-LC retention time
Cc1cccc(CN2C(=O)CN(S(C)(=O)=O)CC2(C)C(=O)NCc2ccc(Cl)cc2)c1 (centres undefined) | 886 s
Cc1ccc(C(=O)N2CCN(c3nc(CN4CCOCC4)cs3)CC2)cc1F | 629 s
CCN1CCN(C(=O)c2c(OCC3CC3)cc(=O)n3c2CCCCC3)CC1 | 569 s
Cc1noc(C)c1CNC(=O)NC1CCCCC1 | 706 s
COCCN1C(=O)c2ccccc2C(C(=O)Nc2ccc(OC)cc2OC)C12CCCC2 (centres undefined) | 871 s
Cc1ccc2[nH]c(=O)c(CCC(=O)NCCc3ccccn3)cc2c1 | 577 s
CCOc1cc(C)c(C)cc1S(=O)(=O)Nc1ccc(Cl)cn1 | 961 s
CCCCCCN1CCN(c2cccc(Cl)c2)CC1 | 737 s
O=C(CCNc1cnc2cnccn12)Nc1ccc2c(c1)OCO2 | 570 s
CC(=O)Nc1ccc(NC(=O)C2CC(=O)N(c3ccc4c(c3)CCN4C(=O)C3CC3)C2)cc1 (centres undefined) | 658 s
CCOC(=O)COc1ccc2c(c1)C(=O)CC1(CCN(C(C)=O)CC1)O2 | 718 s
CCn1ncc(NC(=O)COc2cccc(C)c2C)c(N2CCCCC2)c1=O | 1230 s
CCn1cc(-c2ccc(Cl)cc2)cc1C(=O)NC(C)c1cccnc1 (centres undefined) | 758 s
COc1cc(OC)cc(-c2noc(-c3nn(-c4ccc(C)c(C)c4)ccc3=O)n2)c1 | 979 s
Cn1nnc2c(SCC(=O)NCc3ccco3)ncnc21 | 631 s
COc1ccc(N2CCN(S(=O)(=O)c3cc(-c4nc(C(C)C)cs4)cs3)CC2)cc1 | 1250 s
COc1cc(-c2noc(-c3nc(-c4ccccc4F)no3)n2)cc(OC)c1OC | 1140 s
COc1ccc(NC(=O)c2ccc(-c3cncnc3)nc2)cc1Cl | 735 s
CC(C)Cc1ccc(S(=O)(=O)N2CCc3c(c(-c4nnc(-c5ccccc5F)o4)nn3C)C2)cc1 | 1140 s
Cc1nnc(-c2cn(CC(=O)Nc3cccc(F)c3)c3ccccc23)o1 | 755 s
COc1ccc(-c2noc(Cn3nc(-c4ccccc4)ccc3=O)n2)cc1OC | 900 s
COc1ccccc1-c1nc(Cn2nnc(-c3nc(-c4ccccc4)no3)c2C)c(C)o1 | 1140 s
Cc1nn(CC(=O)NCC2CCCO2)c(=O)c2c(-n3cccc3)n(-c3cccc(F)c3)nc12 (centres undefined) | 818 s

Compound | RP-LC retention time
Cc1ccc(Nc2nc(C)cc(N3CCN(S(=O)(=O)c4ccc5c(c4)OCCO5)CC3)n2)cc1 | 760 s
CC1CCN(CCNC(=O)c2ccc3c(c2)nc2n3CCN(Cc3ccccc3)C2=O)CC1 | 621 s
CC(C(=O)NCCc1c[nH]c2ccccc12)C1CCN(S(=O)(=O)c2cccs2)CC1 (centres undefined) | 841 s
CCCn1c(=O)c(C)nc2cc(-c3noc(/C=C/c4ccc(OC)c(OC)c4)n3)ccc21 | 735 s
CCOC(=O)c1[nH]c(C)c(C(=O)C(C)N(C(=O)c2ccc(Cl)cc2)C2CC2)c1C (centres undefined) | 978 s
O=C([C@@H]1C[C@H](F)CN1S(=O)(=O)Cc1ccccc1)N1CCOCC1 | 692 s
COc1ccc(OCc2nnc3sc(-c4ccc5c(c4)OCCO5)nn23)cc1 | 906 s
CCCNC(=O)c1nnc(-c2ccc(S(=O)(=O)N3CCOCC3)cc2)o1 | 724 s
O=[N+]([O-])c1ccc(CSc2nnc(-c3cccc(S(=O)(=O)N4CCCC4)c3)o2)cc1 | 937 s
Cc1cccc(NS(=O)(=O)c2cc3c(s2)CCN(C(=O)C2CC2)C3)c1 | 849 s
CCN1C(=O)c2c(C(=O)NCc3cccc(F)c3)ncn2CC1(C)C(=O)NC1CCCC1 (centres undefined) | 762 s
CC1CN(Cc2nc3c(c(=O)n(C)c(=O)n3C)n2Cc2ccccc2Cl)CC(C)O1 (centres undefined) | 751 s
O=C(c1cccs1)N1CCC(Nc2ncnc3c2CCC3)C1 (centres undefined) | 547 s
O=C(O)c1ccc(OCCOc2ccccc2)cc1 | 916 s
C[C@H](NCc1ccc(OCc2cccc(F)c2)cc1)C(N)=O | 708 s
CC(=O)N1CCc2ccccc2C1C(=O)NCc1ccc2c(c1)OCO2 (centres undefined) | 731 s
CC(C)CC(=O)Nc1ccc(-c2nc(-c3ccccc3)co2)cc1 | 1100 s
CCCCNC(=O)C1Cc2ccccc2CN1S(=O)(=O)c1ccccc1 (centres undefined) | 960 s
Cc1cc(C)n(CC2CCN(C(=O)c3cc4ccccc4[nH]3)CC2)n1 | 717 s
O=C(NCCc1ccccc1)c1cc2sccc2n1Cc1ccc(F)cc1 | 1140 s
